Source: ChEMBL document CHEMBL3091428, “Synthesis and initial biological evaluation of substituted 1-phenylamino-2-thio-4,5-dimethyl-1H-imidazole derivatives” (Bioorg Med Chem Lett, 2013)
Values after ≈ are worked out from the molar mass of the structure shown.

Key:
Enterococcus faecalis [1] = assay: Antimicrobial activity against Enterococcus faecalis ATCC 51299 after 24 hrs by broth microdilution method; format: functional; conditions: ATCC 51299, 24 h
Pichia kudriavzevii = assay: Antimicrobial activity against Candida krusei ATCC 6258 after 24 hrs by broth microdilution method; format: functional; conditions: ATCC 6258, 24 h
Staphylococcus aureus = assay: Antimicrobial activity against Staphylococcus aureus ATCC 25923 after 24 hrs by broth microdilution method; format: functional; conditions: ATCC 25923, 24 h
Listeria monocytogenes = assay: Antimicrobial activity against Listeria monocytogenes ATCC 19115 after 24 hrs by broth microdilution method; format: functional; conditions: ATCC 19115, 24 h
Klebsiella pneumoniae = assay: Antimicrobial activity against Klebsiella pneumoniae ATCC 13883 after 24 hrs by broth microdilution method; format: functional; conditions: ATCC 13883, 24 h
Nakaseomyces glabratus = assay: Antimicrobial activity against Candida glabrata ATCC 90030 after 24 hrs by broth microdilution method; format: functional; conditions: ATCC 90030, 24 h
Escherichia coli [2] = assay: Antimicrobial activity against Escherichia coli ATCC 25922 after 24 hrs by broth microdilution method; format: functional; conditions: ATCC 25922, 24 h
Artemia salina [3] = assay: Toxicity in brine shrimp larvae assessed as mortality at 800 ug/ml after 24 hrs; format: organism-based; conditions: in vivo
Pseudomonas aeruginosa = assay: Antimicrobial activity against Pseudomonas aeruginosa ATCC 27853 after 24 hrs by broth microdilution method; format: functional; conditions: ATCC 27853, 24 h
Enterococcus faecalis [4] = assay: Antimicrobial activity against Enterococcus faecalis ATCC 29212 after 24 hrs by broth microdilution method; format: functional; conditions: ATCC 29212, 24 h
Artemia salina [5] = assay: Toxicity in brine shrimp larvae assessed as mortality at 1600 ug/ml after 24 hrs; format: organism-based; conditions: in vivo
[6] = Toxicity in brine shrimp larvae assessed as mortality after 24 hrs; format: organism-based; conditions: artemia salina, in vivo
Candida albicans = assay: Antimicrobial activity against Candida albicans ATCC 90028 after 24 hrs by broth microdilution method; format: functional; conditions: ATCC 90028, 24 h
Artemia salina [7] = assay: Toxicity in brine shrimp larvae assessed as mortality at 400 ug/ml after 24 hrs; format: organism-based; conditions: in vivo
Escherichia coli [8] = assay: Antimicrobial activity against Escherichia coli ATCC 35218 after 24 hrs by broth microdilution method; format: functional; conditions: ATCC 35218, 24 h
Artemia salina [9] = assay: Toxicity in brine shrimp larvae assessed as mortality at 100 ug/ml after 24 hrs; format: organism-based; conditions: in vivo
Artemia salina [10] = assay: Toxicity in brine shrimp larvae assessed as mortality at 200 ug/ml after 24 hrs; format: organism-based; conditions: in vivo
Artemia salina [11] = assay: Toxicity in brine shrimp larvae assessed as mortality at 50 ug/ml after 24 hrs; format: organism-based; conditions: in vivo

Row | MIC (Enterococcus faecalis [1]) [µg/mL] | MIC (Pichia kudriavzevii) [µg/mL] | MIC (Staphylococcus aureus) [µg/mL] | MIC (Listeria monocytogenes) [µg/mL] | MIC (Klebsiella pneumoniae) [µg/mL] | MIC (Nakaseomyces glabratus) [µg/mL] | MIC (Escherichia coli [2]) [µg/mL] | MIC (Pseudomonas aeruginosa) [µg/mL] | MIC (Enterococcus faecalis [4]) [µg/mL] | MIC (Candida albicans) [µg/mL] | MIC (Escherichia coli [8]) [µg/mL] | Compound | Activity (Artemia salina [3]) | Activity (Artemia salina [5]) | LC50 at 24 h [6] [µg/mL] | Activity (Artemia salina [7]) | Activity (Artemia salina [9]) | Activity (Artemia salina [10]) | Activity (Artemia salina [11])
1 | 100 (≈ 272 µM) | 800 (≈ 2180 µM) | 800 (≈ 2180 µM) | 800 (≈ 2180 µM) | 800 (≈ 2180 µM) | 800 (≈ 2180 µM) | 800 (≈ 2180 µM) | 800 (≈ 2180 µM) | 800 (≈ 2180 µM) | 800 (≈ 2180 µM) | 800 (≈ 2180 µM) | COc1ccc(Nn2c(SCC(=O)c3ccccc3)nc(C)c2C)cc1 |  |  |  |  |  |  | 
2 | 800 (≈ 1980 µM) | 400 (≈ 991 µM) | 800 (≈ 1980 µM) | 800 (≈ 1980 µM) | 800 (≈ 1980 µM) | 800 (≈ 1980 µM) | 800 (≈ 1980 µM) | 800 (≈ 1980 µM) | 1600 (≈ 3970 µM) | 400 (≈ 991 µM) | 800 (≈ 1980 µM) | COc1ccc(Nn2c(SCC(=O)c3ccc(F)c(F)c3)nc(C)c2C)cc1 |  |  |  |  |  |  | 
3 | 800 (≈ 2180 µM) | 400 (≈ 1090 µM) | 800 (≈ 2180 µM) | 800 (≈ 2180 µM) | 400 (≈ 1090 µM) | 400 (≈ 1090 µM) | 400 (≈ 1090 µM) | 400 (≈ 1090 µM) | 800 (≈ 2180 µM) | 400 (≈ 1090 µM) | 800 (≈ 2180 µM) | COc1cccc(C(=O)CSc2nc(C)c(C)n2Nc2ccccc2)c1 |  |  |  |  |  |  | 
4 | 200 (≈ 516 µM) | 100 (≈ 258 µM) | 800 (≈ 2060 µM) | 800 (≈ 2060 µM) | 800 (≈ 2060 µM) | 400 (≈ 1030 µM) | 800 (≈ 2060 µM) | 800 (≈ 2060 µM) | 400 (≈ 1030 µM) | 200 (≈ 516 µM) | 800 (≈ 2060 µM) | Cc1ccc(Nn2c(SCC(=O)c3ccc(F)c(F)c3)nc(C)c2C)cc1 |  |  |  |  |  |  | 
5 | 800 (≈ 2080 µM) | 400 (≈ 1040 µM) | 400 (≈ 1040 µM) | 400 (≈ 1040 µM) | 800 (≈ 2080 µM) | 400 (≈ 1040 µM) | 800 (≈ 2080 µM) | 400 (≈ 1040 µM) | 400 (≈ 1040 µM) | 400 (≈ 1040 µM) | 800 (≈ 2080 µM) | COc1ccc(Nn2c(SCC(=O)c3cccc(F)c3)nc(C)c2C)cc1 |  |  |  |  |  |  | 
6 | 800 (≈ 2080 µM) | 400 (≈ 1040 µM) | 800 (≈ 2080 µM) | 400 (≈ 1040 µM) | 800 (≈ 2080 µM) | 400 (≈ 1040 µM) | 800 (≈ 2080 µM) | 800 (≈ 2080 µM) | 1600 (≈ 4150 µM) | 400 (≈ 1040 µM) | 800 (≈ 2080 µM) | COc1ccc(Nn2c(SCC(=O)c3ccc(F)cc3)nc(C)c2C)cc1 |  |  |  |  |  |  | 
7 | 1600 (≈ 3740 µM) | 200 (≈ 468 µM) | 800 (≈ 1870 µM) | 800 (≈ 1870 µM) | 800 (≈ 1870 µM) | 400 (≈ 936 µM) | 800 (≈ 1870 µM) | 800 (≈ 1870 µM) | 800 (≈ 1870 µM) | 200 (≈ 468 µM) | 800 (≈ 1870 µM) | COc1ccc(Nn2c(SCC(=O)c3ccc(OC)c(OC)c3)nc(C)c2C)cc1 |  |  |  |  |  |  | 

Row | Compound | MIC (Enterococcus faecalis [1]) [µg/mL] | MIC (Pichia kudriavzevii) [µg/mL] | MIC (Staphylococcus aureus) [µg/mL] | MIC (Listeria monocytogenes) [µg/mL] | MIC (Klebsiella pneumoniae) [µg/mL] | MIC (Nakaseomyces glabratus) [µg/mL] | MIC (Escherichia coli [2]) [µg/mL] | MIC (Pseudomonas aeruginosa) [µg/mL] | MIC (Enterococcus faecalis [4]) [µg/mL] | MIC (Candida albicans) [µg/mL] | MIC (Escherichia coli [8]) [µg/mL] | Activity (Artemia salina [3]) | Activity (Artemia salina [5]) | LC50 at 24 h [6] [µg/mL] | Activity (Artemia salina [7]) | Activity (Artemia salina [9]) | Activity (Artemia salina [10]) | Activity (Artemia salina [11])
8 | COc1ccc(C(=O)CSc2nc(C)c(C)n2Nc2ccc(C)cc2)cc1 | 400 (≈ 1050 µM) | 25 (≈ 65.5 µM) | 400 (≈ 1050 µM) | 50 (≈ 131 µM) | 400 (≈ 1050 µM) | 100 (≈ 262 µM) | 100 (≈ 262 µM) | 400 (≈ 1050 µM) | 25 (≈ 65.5 µM) | 25 (≈ 65.5 µM) | 400 (≈ 1050 µM) | Toxic | Toxic | 153 (≈ 400 µM) | Toxic |  |  | 
9 | COc1ccc(C(=O)CSc2nc(C)c(C)n2Nc2ccc(C)cc2)cc1OC | 400 (≈ 972 µM) | 50 (≈ 121 µM) | 400 (≈ 972 µM) | 50 (≈ 121 µM) | 400 (≈ 972 µM) | 100 (≈ 243 µM) | 200 (≈ 486 µM) | 400 (≈ 972 µM) | 100 (≈ 243 µM) | 100 (≈ 243 µM) | 200 (≈ 486 µM) |  |  | 1310 (≈ 3180 µM) |  | Non-toxic | Non-toxic | Non-toxic
10 | Cc1nc(SCC(=O)c2ccc(F)c(F)c2)n(Nc2ccc(Cl)cc2)c1C | 400 (≈ 981 µM) | 100 (≈ 245 µM) | 400 (≈ 981 µM) | 50 (≈ 123 µM) | 400 (≈ 981 µM) | 100 (≈ 245 µM) | 400 (≈ 981 µM) | 400 (≈ 981 µM) | 50 (≈ 123 µM) | 50 (≈ 123 µM) | 800 (≈ 1960 µM) | Toxic | Toxic | 359 (≈ 881 µM) |  | Non-toxic |  | Non-toxic
11 | Cc1nc(SCC(=O)c2ccc(F)c(F)c2)n(Nc2ccccc2)c1C | 400 (≈ 1070 µM) | 200 (≈ 536 µM) | 100 (≈ 268 µM) | 50 (≈ 134 µM) | 400 (≈ 1070 µM) | 400 (≈ 1070 µM) | 400 (≈ 1070 µM) | 400 (≈ 1070 µM) | 25 (≈ 66.9 µM) | 400 (≈ 1070 µM) | 400 (≈ 1070 µM) |  |  | 465 (≈ 1250 µM) |  |  |  | 
